From patent US12391695B2, “PRMT5 inhibitors” (Lupin Limited, priority 2019, dated 2025)
Read-outs that look alike come from different tables or passages of the source.

How the values were obtained:
PRMT5:MEP50 = PRMT5:MEP50 (Homo sapiens, UniProt O14744); test: PRMT5 biochemical assay (HTRF, biotinylated H4R3 substrate), protocols 1 and 2; conditions: 1 μM SAM, 50 nM biotinylated H4R3, protocol 1 or 2 not given, read-out: IC50 (activity range), inhibition of PRMT5
Protocol: (§1) Inhibitory effect of compounds on PRMT5 was assessed using HTRF detection technology in biochemical assay. Biotinylated H4R3 (residues 1-21) was used as a substrate. Compounds were pre-incubated with 15-25 ng PRMT5:MEP50 per well of a 384-well plate for 30 min at room temperature in the assay buffer containing 20 mM Bicine, pH 7.6, 25 mM NaCl, 2 mM DTT, 0.01% Chicken albumin and 0.01% Tween-20. Reaction was initiated by adding 1 μM of SAM and 50 nM biotinylated H4R3. Total assay volume was 15 μL. Reaction was continued for 120 min at room temperature. Then detection solution containing Streptavidin-Eu cryptate, anti-rabbit IgG-XL-665, Histone H4R3 Dimethyl Symmetric (H4R3me2s) Polyclonal Antibody, all prepared in HTRF detection buffer was added and further incubated for 30 min at room temperature. HTRF signal was recorded in PHERAStar microplate reader. Ratio of signal obtained at 665 nm and 620 nm was used to compute the percent inhibition of compound as follows % Inhibition=100−((Test Ratio−Negative control Ratio)/(Positive control Ratio−Negative control Ratio)*100) where Positive control=PRMT5+SAM+H4R3 Negative control=PRMT5+H4R3 Biochemical Assay Protocol 2
as §1, with “2.5” for “15-25”, “4 h” for “120 min”, “control=PRMT5+H4R3” for “control=PRMT5+H4R3 Biochemical Assay Protocol 2”

SDMA = SDMA inhibition assay in Z-138 cells (ELISA with anti-SDMA antibody); assay type: cell-based; conditions: Homo sapiens, Z-138, 48 h, 48 h treatment, read-out: IC50 (activity range), SDMA inhibition
Protocol: Z-138 cells (ATCC, CRL-3001™) were seeded at a density of 1 million cells/well in transparent, flat bottomed tissue culture grade 48-well plates. Cells were treated with various concentration of test compounds for a period of 48 h. Cell lysate was prepared using 1× CST Lysis buffer (Cell Signaling Technology, USA) and 500 ng/well/50 μL of lysate in pH 9.6 carbonate buffer was coated on 96-well Maxisorb plate and incubated overnight at 4° C. The plate was washed twice in 1×PBS containing 0.05% Tween 20 and blocked in 1% BSA for 1 h at ambient temperature. Further, the plate was incubated first with primary antibody (anti-SDMA antibody; CST #13222s) at ambient temperature for 2 h and then with HRP-conjugated secondary antibody at ambient temperature for 1 h with 2 intermittent washing steps in between.
For luminiscence based detection, HRP substrates (substrate A+substrate B in a 1:1 proportion) were added followed by luminiscence reading after 30 min in Synergy™ 2 reader (Biotek, USA).
For absorbance based detection, TMB substrate was added followed by addition of STOP solution (2N H2SO4) post colour development and absorbance (excitation 450 nm and emission 540 nm) was measured in Synergy™ 2 reader (Biotek, USA).
% inhibition of SDMA was calculated relative to the vehicle control samples containing media with 0.1% DMSO alone as per the formula below. (Avg. of Untreated Control−Avg. of Test)×100 Avg. Of Untreated Control
The IC50 values of individual compounds were calculated with Non Linear Regression Analysis using Graph Pad Prism (Graph Pad software, Inc, USA).

Z-138 cells = test: Anti-cancer assay (Z-138), cell viability by CellTiterGlo; assay type: cell-based; conditions: Homo sapiens, 96 h treatment, read-out: IC50 (activity range), inhibition of cell viability
Protocol: Z-138 cells were seeded at a density of 2000-3000 cells per well in culture media (IMDM+10% FBS). PANC-1 (ATCC, CRL-1469™) and MIA PaCa-2 (ATCC, CRL-1420™) cells were seeded at a density of 200-300 cells per well in culture media (DMEM+10% FBS). Cells were seeded in opaque, flat bottomed tissue culture grade 96-well plates and Z-138 cells (suspension) were seeded and treated on the same day with various concentrations of test compounds. PANC-1 and MIA PaCa-2 cells, being adherent, were kept for overnight settlement at standard cell culture conditions (37° C., 5% CO2). On the following day, cells were treated with various concentrations of test compounds. Cells were treated with test compounds for a period of 96 h, 7 days and 10 days, for Z-138 cells, PANC-1 cells and MIA PaCa-2 cells, respectively. Cell viability was assessed using CellTiterGlo™ (Promega, USA) as per manufacturer's instructions. Relative Light Units (RLU) were read in Synergy™ 2 reader (Biotek, USA). The assay measures cellular ATP as an indicator of cell viability. RLU is proportional to the number of viable cells in the respective well. % inhibition of cell viability was calculated relative to the vehicle control samples containing media with 0.1% DMSO alone as per the formula below. (Avg. of Untreated Control−Avg. of Test)×100 Avg. Of Untreated Control
The IC50 values of individual compounds were calculated with Non Linear Regression Analysis using Graph Pad Prism (Graph Pad software, Inc, USA). • Anti-Cancer Assay (Z-138)

PRMT5:MEP50, sequence (O14744 whole entry, the tested form may be a part): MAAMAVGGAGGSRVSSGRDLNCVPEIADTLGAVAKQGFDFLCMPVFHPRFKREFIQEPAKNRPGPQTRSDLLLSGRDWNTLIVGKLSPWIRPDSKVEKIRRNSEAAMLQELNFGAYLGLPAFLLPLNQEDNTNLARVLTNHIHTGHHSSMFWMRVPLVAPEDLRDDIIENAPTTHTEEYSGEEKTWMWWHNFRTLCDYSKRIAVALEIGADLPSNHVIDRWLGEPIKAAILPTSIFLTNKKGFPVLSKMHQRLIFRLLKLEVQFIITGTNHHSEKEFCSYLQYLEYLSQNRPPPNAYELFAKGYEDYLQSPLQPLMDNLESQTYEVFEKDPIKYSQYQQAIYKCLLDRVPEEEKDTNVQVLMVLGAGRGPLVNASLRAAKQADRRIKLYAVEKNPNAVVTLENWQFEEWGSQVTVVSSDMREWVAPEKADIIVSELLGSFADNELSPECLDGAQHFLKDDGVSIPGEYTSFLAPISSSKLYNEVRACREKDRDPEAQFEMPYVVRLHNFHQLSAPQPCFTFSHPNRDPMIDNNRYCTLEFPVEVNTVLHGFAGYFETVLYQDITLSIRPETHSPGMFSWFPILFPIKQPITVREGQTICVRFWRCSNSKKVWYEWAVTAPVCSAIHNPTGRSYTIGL
PRMT5:MEP50, sequence (Q9BQA1 whole entry partner, the tested form may be a part): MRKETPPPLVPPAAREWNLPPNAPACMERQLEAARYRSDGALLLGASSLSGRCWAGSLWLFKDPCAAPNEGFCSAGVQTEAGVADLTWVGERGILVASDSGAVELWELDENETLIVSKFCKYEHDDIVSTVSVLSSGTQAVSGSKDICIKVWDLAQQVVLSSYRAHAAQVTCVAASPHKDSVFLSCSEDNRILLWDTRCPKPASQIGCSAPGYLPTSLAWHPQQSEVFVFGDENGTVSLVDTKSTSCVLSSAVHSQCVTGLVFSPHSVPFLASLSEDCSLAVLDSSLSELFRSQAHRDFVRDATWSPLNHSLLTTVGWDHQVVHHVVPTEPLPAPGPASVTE

| SMILES | IC50 (PRMT5:MEP50) [nM] | IC50 (SDMA) [nM] | IC50 (Z-138 cells) [pM] | IC50 (Z-138 cells; range with mixed units pM/nM, units kept in the value) [pM] |
| --- | --- | --- | --- | --- |
| Nc1nc2cc(CC[C@@]34C[C@@H]3[C@@H](n3ccc5c(N)ncnc53)[C@H](O)[C@@H]4O)cnc2cc1Cl [Compound 24, (1R,2R,3S,4R,5S)-1-(2-(6-Amino-7-chloro-1,5-naphthyridin-3-yl)ethyl)-4-(4-amino-7H-pyrrolo[2,3-d]pyrimidin-7-yl)bicyclo[3.1.0]hexane-2,3-diol] | 0.25 to 0.95 | 1.1 to 50 | > 1000 | – |
| Cc1nc(N)c2cnn([C@@H]3C=C(CCc4cc(F)c5cc(Cl)c(N)nc5c4)[C@@H](O)[C@H]3O)c2n1 [Compound 6, (1S,2R,5R)-3-(2-(2-amino-3-chloro-5-fluoroquinolin-7-yl)ethyl)-5-(4-amino-6-methyl-1H-pyrazolo[3,4-d]pyrimidin-1-yl)cyclopent-3-ene-1,2-diol] | 0.25 to 0.95 | 1.1 to 50 | – | 101 to 1000 |
| Nc1cnc2ccc(CC[C@@]34C[C@@H]3[C@@H](n3ccc5c(N)ncnc53)[C@H](O)[C@@H]4O)cc2n1 [Compound 4, (1R,2R,3S,4R,5S)-4-(4-Amino-7H-pyrrolo[2,3-d]pyrimidin-7-yl)-1-(2-(3-aminoquinoxalin-6-yl)ethyl)bicyclo[3.1.0]hexane-2,3-diol] | 0.25 to 0.95 | 1.1 to 50 | > 1000 | – |

Now from value to molecule:

| IC50 (PRMT5:MEP50) [nM] | IC50 (SDMA) [nM] | IC50 (Z-138 cells) [pM] | IC50 (Z-138 cells; range with mixed units pM/nM, units kept in the value) [pM] | SMILES |
| --- | --- | --- | --- | --- |
| 0.25 to 0.95 | 1.1 to 50 | > 1000 | – | Nc1ncnc2c1ccn2[C@@H]1C=C(CCc2ccc(F)c3c2CNCC3)[C@@H](O)[C@H]1O [Compound 9, (1S,2R,5R)-5-(4-amino-7H-pyrrolo[2,3-d]pyrimidin-7-yl)-3-(2-(5-fluoro-1,2,3,4-tetrahydroisoquinolin-8-yl)ethyl)cyclopent-3-ene-1,2-diol] |
| > 0.95 | 1.1 to 50 | > 1000 | – | Nc1nc2cc(CCC3=C[C@@H](n4ccc5c4ncn4ccnc54)[C@H](O)[C@@H]3O)ccc2cc1Br [Compound 26, (1S,2R,5R)-3-(2-(2-Amino-3-bromoquinolin-7-yl)ethyl)-5-(7H-imidazo[1,2-c]pyrrolo[3,2-e]pyrimidin-7-yl)cyclopent-3-ene-1,2-diol] |
